Laboratory results taken from ChEMBL document CHEMBL1149799, “Bioactive peroxides as potential therapeutic agents” (Eur J Med Chem, 2008).
Values after ≈ are worked out from the molar mass of the structure shown.

Assays:
A549 = assay: Cytotoxicity against human A549 cells; format: functional, cell-based; details: Homo sapiens, A549
[1] = Cytotoxicity against human Bel-7721 cells; format: functional, cell-based
[2] = Cytotoxicity against human Anip-973 cells; format: functional, cell-based
[3] = target: Prostaglandin G/H synthase 1 (Homo sapiens, UniProt P23219); assay: Inhibition of cyclooxygenase-1
[4] = target: Prostaglandin G/H synthase 2 (Homo sapiens, UniProt P35354); assay: Inhibition of cyclooxygenase-2
OVCAR-5 = assay: Cytotoxicity against human OVCAR5 cells; format: functional, cell-based
OVCAR-8 = assay: Cytotoxicity against human OVCAR8 cells; format: functional, cell-based
SK-OV-3 = assay: Cytotoxicity against human SK-OV-3 cells; format: functional, cell-based
ACHN = assay: Cytotoxicity against human ACHN cells; format: functional, cell-based
PC-3 = assay: Cytotoxicity against human PC3 cells; format: functional, cell-based; details: Homo sapiens, PC-3
HCT-116 = assay: Cytotoxicity against human HCT116 cells; format: functional, cell-based
HT-29 = assay: Cytotoxicity against human HT29 cells; format: functional, cell-based; details: Homo sapiens, HT-29
MDA-MB-231 = assay: Cytotoxicity against human MDA-MB-231 cells; format: functional, cell-based
MCF7 = assay: Cytotoxicity against human MCF7 cells; format: functional, cell-based; details: Homo sapiens, MCF7
SF-268 = assay: Cytotoxicity against human SF268 cells; format: functional, cell-based; details: Homo sapiens, SF-268; read-out: IC50
NCI-H460 = assay: Cytotoxicity against human NCI-H460 cells; format: functional, cell-based; details: Homo sapiens, NCI-H460
DU-145 = assay: Cytotoxicity against human DU145 cells; format: functional, cell-based; details: Homo sapiens, DU-145
NCI-H23 = assay: Cytotoxicity against human NCI-H23 cells; format: functional, cell-based
HCC 2998 = assay: Cytotoxicity against human HCC2998 cells; format: functional, cell-based
HCT-15 = assay: Cytotoxicity against human HCT15 cells; format: functional, cell-based
KM12 = assay: Cytotoxicity against human KM12 cells; format: functional, cell-based
SF-295 = assay: Cytotoxicity against human SF295 cells; format: functional, cell-based
SNB-75 = assay: Cytotoxicity against human SNB75 cells; format: functional, cell-based
U-251 = assay: Cytotoxicity against human U251 cells; format: functional, cell-based
LOX IMVI = assay: Cytotoxicity against human LOXI MVI cells; format: functional, cell-based
OVCAR-3 = assay: Cytotoxicity against human OVCAR-3 cells; format: functional, cell-based
OVCAR-4 = assay: Cytotoxicity against human OVCAR4 cells; format: functional, cell-based
[5] = Cytotoxicity against human HBC4 cells; format: functional, cell-based
[6] = Cytotoxicity against human BSY1 cells; format: functional, cell-based; details: BSY-1
[7] = Cytotoxicity against human HBC5 cells; format: functional, cell-based
NCI-H226 = assay: Cytotoxicity against human NCI-H226 cells; format: functional, cell-based
NCI-H522 = assay: Cytotoxicity against human NCI-H522 cells; format: functional, cell-based
DMS-273 = assay: Cytotoxicity against human DMS273 cells; format: functional, cell-based
DMS-114 = assay: Cytotoxicity against human DMS114 cells; format: functional, cell-based
St-4 = assay: Cytotoxicity against human ST4 cells; format: functional, cell-based
[8] = Cytotoxicity against human MKN1 cells; format: functional, cell-based; details: MKN-1
MKN-7 = assay: Cytotoxicity against human MKN7 cells; format: functional, cell-based
MKN-28 = assay: Cytotoxicity against human MKN28 cells; format: functional, cell-based
MKN-45 = assay: Cytotoxicity against human MKN45 cells; format: functional, cell-based
MKN-74 = assay: Cytotoxicity against human MKN74 cells; format: functional, cell-based
[9] = Cytotoxicity against human RXF63IL cells; format: functional, cell-based
SF-539 = assay: Cytotoxicity against human SF539 cells; format: functional, cell-based
SNB-78 = assay: Cytotoxicity against human SNB78 cells; format: functional, cell-based
[10] = Cytotoxicity against human Fem-X cells; format: functional, cell-based
PBMC [11] = assay: Cytotoxicity against human PBMC cells; format: cell-based
HeLa = assay: Cytotoxicity against human HeLa cells; format: functional, cell-based
K562 [12] = assay: Cytotoxicity against human K562 cells; format: functional, cell-based
PBMC [13] = assay: Cytotoxicity against human PHA-activated PBMC cells; format: cell-based
[14] = target: Sodium-dependent serotonin transporter (Homo sapiens, UniProt P31645); assay: Inhibition of serotonin transporter
[15] = target: Sodium-dependent dopamine transporter (Homo sapiens, UniProt Q01959); assay: Inhibition of dopamine uptake at DAT
[16] = Inhibition of gamma aminobutyric acid transporter
[17] = Inhibition of L-glutamate transporter
[18] = target: Sodium-dependent noradrenaline transporter (Homo sapiens, UniProt P23975); assay: Inhibition of noradrenaline transporter
SNU1 = assay: Cytotoxicity against human SNU1 cells; format: functional, cell-based
SNU-354 = assay: Cytotoxicity against human SNU354 cells; format: functional, cell-based
[19] = Cytotoxicity against human SNUC4 cells; format: functional, cell-based; details: SNU-C4
[20] = Cytotoxicity against mouse sarcoma 180 cells; format: functional, cell-based
[21] = target: Aldo-keto reductase family 1 member B1 (Rattus norvegicus, UniProt P07943); assay: Inhibition of rat lens aldose reductase
[22] = Cytotoxicity against human Hepa59T/VGH cells; format: functional; details: HEPA 59T/VGH, read-out: ED50 (the source's name)
KB = assay: Cytotoxicity against human KB cells; format: functional, cell-based; details: Homo sapiens, KB; read-out: ED50 (the source's name)
[23] = Cytotoxicity against human PLC/PRF/5 cells; format: functional; details: read-out: ED50 (the source's name)
K562 [24] = assay: Cytotoxicity against human K562 cells at 10 ug/mL; format: functional
Jurkat = assay: Cytotoxicity against human Jurkat cells at 10 ug/mL; format: functional
[25] = Cytotoxicity against human WM1341 cells at 10 ug/mL; format: functional
HL-60 = assay: Cytotoxicity against human HL60 cells at 10 ug/mL; format: functional
[26] = Cytotoxicity against human RPM18226 cells at 10 ug/mL; format: functional; details: RPMI-8226

Sequence of Sodium-dependent noradrenaline transporter (P23975 whole entry): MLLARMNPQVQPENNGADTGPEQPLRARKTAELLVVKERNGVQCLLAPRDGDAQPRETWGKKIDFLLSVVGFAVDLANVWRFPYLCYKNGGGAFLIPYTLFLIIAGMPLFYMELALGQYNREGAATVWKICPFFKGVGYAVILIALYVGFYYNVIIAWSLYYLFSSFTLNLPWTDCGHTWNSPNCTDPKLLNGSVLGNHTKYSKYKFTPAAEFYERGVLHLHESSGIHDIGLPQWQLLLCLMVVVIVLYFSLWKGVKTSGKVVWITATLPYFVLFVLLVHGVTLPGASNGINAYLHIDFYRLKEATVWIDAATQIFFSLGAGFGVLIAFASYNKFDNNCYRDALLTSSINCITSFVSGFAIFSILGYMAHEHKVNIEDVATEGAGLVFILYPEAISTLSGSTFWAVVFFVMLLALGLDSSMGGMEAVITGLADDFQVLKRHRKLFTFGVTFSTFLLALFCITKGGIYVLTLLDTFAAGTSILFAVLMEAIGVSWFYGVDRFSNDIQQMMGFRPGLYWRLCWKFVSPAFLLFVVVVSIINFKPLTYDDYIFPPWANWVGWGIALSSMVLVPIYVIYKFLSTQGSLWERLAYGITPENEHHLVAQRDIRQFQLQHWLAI
Sequence of Prostaglandin G/H synthase 1 (P23219 whole entry): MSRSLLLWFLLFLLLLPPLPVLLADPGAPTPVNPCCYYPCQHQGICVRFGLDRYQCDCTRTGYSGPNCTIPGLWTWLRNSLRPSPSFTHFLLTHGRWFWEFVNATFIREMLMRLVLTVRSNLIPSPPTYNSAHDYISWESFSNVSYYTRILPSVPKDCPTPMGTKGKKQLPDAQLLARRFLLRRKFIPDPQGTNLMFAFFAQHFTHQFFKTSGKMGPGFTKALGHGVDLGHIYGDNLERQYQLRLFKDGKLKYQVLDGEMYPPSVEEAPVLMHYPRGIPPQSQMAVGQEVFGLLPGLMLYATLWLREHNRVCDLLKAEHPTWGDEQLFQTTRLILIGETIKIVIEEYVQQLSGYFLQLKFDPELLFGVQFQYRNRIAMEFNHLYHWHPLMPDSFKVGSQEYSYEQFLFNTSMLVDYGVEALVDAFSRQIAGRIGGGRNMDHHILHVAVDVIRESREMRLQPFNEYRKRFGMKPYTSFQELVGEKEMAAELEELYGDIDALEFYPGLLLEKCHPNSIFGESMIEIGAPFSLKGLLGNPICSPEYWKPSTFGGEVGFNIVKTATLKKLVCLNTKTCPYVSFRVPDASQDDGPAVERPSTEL
Sequence of Sodium-dependent serotonin transporter (P31645 whole entry): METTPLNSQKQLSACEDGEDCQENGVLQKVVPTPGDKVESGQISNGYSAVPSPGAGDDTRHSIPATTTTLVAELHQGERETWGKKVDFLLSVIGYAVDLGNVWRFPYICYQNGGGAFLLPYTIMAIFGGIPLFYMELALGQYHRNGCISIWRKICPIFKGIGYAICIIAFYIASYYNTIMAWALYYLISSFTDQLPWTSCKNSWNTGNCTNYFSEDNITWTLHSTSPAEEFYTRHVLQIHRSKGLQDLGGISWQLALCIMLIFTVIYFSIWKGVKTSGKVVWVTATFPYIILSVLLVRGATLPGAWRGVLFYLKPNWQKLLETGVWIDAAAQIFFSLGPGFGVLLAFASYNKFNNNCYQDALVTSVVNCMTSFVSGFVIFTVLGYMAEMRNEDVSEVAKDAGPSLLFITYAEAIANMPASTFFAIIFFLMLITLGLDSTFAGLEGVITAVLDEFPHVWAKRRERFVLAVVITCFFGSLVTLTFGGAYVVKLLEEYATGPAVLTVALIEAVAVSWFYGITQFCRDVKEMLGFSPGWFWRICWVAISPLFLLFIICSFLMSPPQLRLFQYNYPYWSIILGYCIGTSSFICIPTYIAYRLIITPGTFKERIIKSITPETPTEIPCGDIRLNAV
Sequence of Prostaglandin G/H synthase 2 (P35354 whole entry): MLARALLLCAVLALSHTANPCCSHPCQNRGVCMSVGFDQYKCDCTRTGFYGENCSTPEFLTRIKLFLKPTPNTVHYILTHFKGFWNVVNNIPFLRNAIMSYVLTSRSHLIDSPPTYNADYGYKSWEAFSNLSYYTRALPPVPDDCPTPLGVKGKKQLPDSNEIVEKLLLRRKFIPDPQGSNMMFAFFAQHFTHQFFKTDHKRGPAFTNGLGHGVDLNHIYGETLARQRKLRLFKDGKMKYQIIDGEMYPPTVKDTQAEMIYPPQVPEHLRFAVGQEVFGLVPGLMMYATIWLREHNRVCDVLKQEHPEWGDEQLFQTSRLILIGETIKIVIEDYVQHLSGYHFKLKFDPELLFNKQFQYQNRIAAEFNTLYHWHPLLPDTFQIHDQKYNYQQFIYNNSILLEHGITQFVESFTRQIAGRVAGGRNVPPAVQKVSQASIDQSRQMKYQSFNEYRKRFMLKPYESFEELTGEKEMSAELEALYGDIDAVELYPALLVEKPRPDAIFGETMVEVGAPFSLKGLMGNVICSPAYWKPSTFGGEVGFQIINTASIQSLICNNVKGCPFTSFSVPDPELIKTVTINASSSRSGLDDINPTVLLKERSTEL
Sequence of Sodium-dependent dopamine transporter (Q01959 whole entry): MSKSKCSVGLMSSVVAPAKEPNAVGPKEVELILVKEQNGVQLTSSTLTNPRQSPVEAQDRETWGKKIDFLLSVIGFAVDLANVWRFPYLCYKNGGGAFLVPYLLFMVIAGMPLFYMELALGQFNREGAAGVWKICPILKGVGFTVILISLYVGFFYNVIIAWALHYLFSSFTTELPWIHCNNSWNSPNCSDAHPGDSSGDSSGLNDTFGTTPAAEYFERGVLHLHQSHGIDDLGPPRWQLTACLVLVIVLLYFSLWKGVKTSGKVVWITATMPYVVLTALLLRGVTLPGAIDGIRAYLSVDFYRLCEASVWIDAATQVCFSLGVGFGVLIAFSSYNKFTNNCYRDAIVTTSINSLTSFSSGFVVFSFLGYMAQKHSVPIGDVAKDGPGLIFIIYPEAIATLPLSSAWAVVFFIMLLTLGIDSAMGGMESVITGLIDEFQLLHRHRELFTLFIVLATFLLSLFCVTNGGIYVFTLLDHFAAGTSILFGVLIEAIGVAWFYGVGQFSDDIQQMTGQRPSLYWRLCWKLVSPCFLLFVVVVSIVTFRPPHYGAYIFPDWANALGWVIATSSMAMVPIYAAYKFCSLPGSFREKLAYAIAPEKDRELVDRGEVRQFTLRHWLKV

For `COC1=CC(=O)c2c(O)c(OC)c3c(c2C1=O)-c1c2c(c(O)c(OC)c1[C@@H](C(C)=O)[C@@](C)(O)C3)C(=O)C=C(OC)C2=O` [HYPOCRELLIN D], the IC50 (A549) was 8.8 µg/mL (≈ 15.2 µM), the IC50 [1] was 1.8 µg/mL (≈ 3.11 µM) and the IC50 [2] was 38.4 µg/mL (≈ 66.4 µM).
`C=C[C@@H]1[C@@H](O)C[C@@H]2[C@]3(CC[C@]4(C)[C@@H]([C@H](C)CCC(OO)C(=C)C)CC[C@@]24C)C[C@]13CCC(=O)OC` (some centres not stated) gave an IC50 [3] of 43.7 µg and an IC50 [4] of 4.7 µg.
For `C=C(C)[C@@H](C)/C=C/[C@@H](C)[C@H]1CC[C@@H]2[C@]1(C)CC=C1[C@]23C=C[C@]2(C[C@@H](O)CC[C@]12C)OO3`, the IC50 (OVCAR-5) was 0.54 µg/mL (≈ 1.27 µM), the IC50 (OVCAR-8) was 0.22 µg/mL (≈ 0.518 µM) and the IC50 (SK-OV-3) was 0.81 µg/mL (≈ 1.91 µM). It also gave an IC50 (ACHN) of 0.51 µg/mL (≈ 1.2 µM), an IC50 (PC-3) of 0.57 µg/mL (≈ 1.34 µM) and an IC50 (A549) of 0.96 µg/mL (≈ 2.26 µM). It also gave an IC50 (HCT-116) of 0.48 µg/mL (≈ 1.13 µM), an IC50 (HT-29) of 0.57 µg/mL (≈ 1.34 µM) and an IC50 (MDA-MB-231) of 1.26 µg/mL (≈ 2.97 µM). The IC50 (MCF7) was 0.36 µg/mL (≈ 0.848 µM), the IC50 (SF-268) was 1.02 µg/mL (≈ 2.4 µM) and the IC50 (NCI-H460) was 0.61 µg/mL (≈ 1.44 µM). The IC50 (DU-145) was 0.54 µg/mL (≈ 1.27 µM), the IC50 (NCI-H23) was 0.54 µg/mL (≈ 1.27 µM) and the IC50 (HCC 2998) was 0.57 µg/mL (≈ 1.34 µM). It also gave an IC50 (HCT-15) of 0.75 µg/mL (≈ 1.77 µM), an IC50 (KM12) of 0.6 µg/mL (≈ 1.41 µM) and an IC50 (SF-295) of 0.75 µg/mL (≈ 1.77 µM). It also gave an IC50 (SNB-75) of 2.16 µg/mL (≈ 5.09 µM), an IC50 (U-251) of 0.63 µg/mL (≈ 1.48 µM) and an IC50 (LOX IMVI) of 0.6 µg/mL (≈ 1.41 µM). For the same molecule, the IC50 (OVCAR-3) was 0.19 µg/mL (≈ 0.447 µM), the IC50 (OVCAR-4) was 0.6 µg/mL (≈ 1.41 µM) and the IC50 [5] was 0.85 µg/mL (≈ 2 µM). For the same molecule, the IC50 [6] was 0.6 µg/mL (≈ 1.41 µM), the IC50 [7] was 0.96 µg/mL (≈ 2.26 µM) and the IC50 (NCI-H226) was 0.63 µg/mL (≈ 1.48 µM). The IC50 (NCI-H522) was 0.57 µg/mL (≈ 1.34 µM), the IC50 (DMS-273) was 0.54 µg/mL (≈ 1.27 µM) and the IC50 (DMS-114) was 0.48 µg/mL (≈ 1.13 µM). It also gave an IC50 (St-4) of 0.69 µg/mL (≈ 1.62 µM), an IC50 [8] of 0.42 µg/mL (≈ 0.989 µM) and an IC50 (MKN-7) of 0.48 µg/mL (≈ 1.13 µM). For the same molecule, the IC50 (MKN-28) was 0.84 µg/mL (≈ 1.98 µM), the IC50 (MKN-45) was 0.54 µg/mL (≈ 1.27 µM) and the IC50 (MKN-74) was 0.54 µg/mL (≈ 1.27 µM). The IC50 [9] was 0.72 µg/mL (≈ 1.7 µM), the IC50 (SF-539) was 0.84 µg/mL (≈ 1.98 µM) and the IC50 (SNB-78) was 1.17 µg/mL (≈ 2.76 µM).
For `C=C1C(=O)O[C@H]2C1C[C@@H](OC(C)=O)[C@@](C)(O)[C@@]13C=C[C@@](C)(OO1)[C@H]23` (some centres not stated) [APRESSIN], the IC50 [10] was 5.27 µg/mL (≈ 15.7 µM), the IC50 (PBMC [11]) was 15.9 µg/mL (≈ 47.2 µM) and the IC50 (HeLa) was 7.36 µg/mL (≈ 21.9 µM). The IC50 (K562 [12]) was 4.44 µg/mL (≈ 13.2 µM) and the IC50 (PBMC [13]) was 8.78 µg/mL (≈ 26.1 µM).
Work on `CC(C)=CCC[C@]1(C)[C@@H](CC=C(C)C)C[C@@]2(CC=C(C)C)C(=O)[C@@](CC=C(C)C)(CC3=C[C@@H]4[C@@H](C(C)C)CC[C@@](C)(OO)[C@H]4CC3)C(=O)[C@]1(C(=O)C(C)C)C2=O` [HYDROPEROXYCADIFORIN] yielded an IC50 [14] of 0.0647 µM, an IC50 [15] of 0.0647 µM and an IC50 [16] of 0.05 µg/mL (≈ 0.0647 µM). It also gave an IC50 [17] of 0.5 µg/mL (≈ 0.647 µM) and an IC50 [18] of 0.0647 µM.
Work on `CC(C)[C@@H](C)/C=C/[C@@H](C)[C@H]1CC[C@@H]2[C@]1(C)CC[C@H]1[C@]23C=C[C@]2(C[C@@H](O)CC[C@]12C)OO3` [ERGOSTEROL PEROXIDE] yielded an IC50 (SNU1) of 18.7 µM, an IC50 (SNU-354) of 158 µM and an IC50 [19] of 84.6 µM. For the same molecule, the IC50 [20] was 74.1 µM and the IC50 [21] was 35.9 µM.
In the case of `CC(C)[C@]12C=C3[C@](C)(O)CC[C@]3(OO1)[C@@H](C)CC2` [PEROXYGIBBEROL], the EC50 [22] is reported as 8.2 µg/mL (≈ 32.5 µM).
Molecule `CC(C)C(C)/C=C/C(C)[C@H]1CC[C@@H]2[C@]1(C)CC[C@H]1[C@]23C=C[C@]2(C[C@@H](O)CC[C@]12C)OO3` (some centres not stated) has an EC50 (KB) of 9.97 µg/mL (≈ 23.3 µM) and an EC50 [23] of 11 µg/mL (≈ 25.6 µM).
`CC(C)[C@@H](C)/C=C/[C@@H](C)[C@H]1CC[C@@H]2[C@]1(C)CC[C@H]1[C@]23C=C[C@]2(C[C@@H](O[C@@H]4O[C@H](CO)[C@@H](O)[C@H](O)[C@H]4O)CC[C@]12C)OO3` showed an inhibition at 10 µg/mL (K562 [24]) of 10%, an inhibition at 10 µg/mL (Jurkat) of 10% and an inhibition at 10 µg/mL [25] of 10%. The inhibition at 10 µg/mL (HL-60) was 10% and the inhibition at 10 µg/mL [26] was 10%.
